SMILES strings stand for the structures. pIC50: −log10 of the molar value. A value given as a limit tells only on which side of the number the result lay.

Series [1] can be described thus: Tmax in BALB/c mouse model of mBSA-induced delayed type hypersensitivity at 1 mg/kg, po administered twice daily for 7 days followed by mBSA challenge and measured after 24 hrs. In kind it is ADME, organism-based. The note with it: in vivo, time 8 day.
Series [2] can be described thus: AUClast in BALB/c mouse model of mBSA-induced delayed type hypersensitivity at 3 mg/kg, po administered twice daily for 7 days followed by mBSA challenge and measured after 24 hrs. The conditions noted are these: in vivo. Format: ADME, organism-based. The arrangement: route oral, time 8 day, dose 3 mg/kg.
A short description of series [3]: Cmax in CFA-induced rheumatoid arthritis Lewis rat model at 3 mg/kg, po administered once daily for 15 days. In kind it is ADME, organism-based. The arrangement: route oral, time 15 day, dose 3 mg/kg. The conditions noted are these: in vivo.
The nature of series [4]: AUClast in CFA-induced rheumatoid arthritis Lewis rat model at 1 mg/kg, po administered once daily for 15 days. In kind it is ADME, organism-based. The arrangement: route oral, dose 1 mg/kg, time 15 day. The note with it: in vivo.
The nature of series [5]: Cmax in collagen-induced rheumatoid arthritis DBA/1J mouse model at 3 mg/kg, po administered twice daily for 15 days in presence of 0.75 mg/kg of methotrexate. The conditions noted are these: in vivo. Format: ADME, organism-based. The arrangement: route oral, dose 3 mg/kg, time 15 day.
For series [6], the target named is Voltage-gated inwardly rectifying potassium channel KCNH2 (Homo sapiens, UniProt Q12809). Kind of series: Inhibition of human ERG by FLIPR TETRA method.
Voltage-gated inwardly rectifying potassium channel KCNH2, sequence (Q12809 whole entry): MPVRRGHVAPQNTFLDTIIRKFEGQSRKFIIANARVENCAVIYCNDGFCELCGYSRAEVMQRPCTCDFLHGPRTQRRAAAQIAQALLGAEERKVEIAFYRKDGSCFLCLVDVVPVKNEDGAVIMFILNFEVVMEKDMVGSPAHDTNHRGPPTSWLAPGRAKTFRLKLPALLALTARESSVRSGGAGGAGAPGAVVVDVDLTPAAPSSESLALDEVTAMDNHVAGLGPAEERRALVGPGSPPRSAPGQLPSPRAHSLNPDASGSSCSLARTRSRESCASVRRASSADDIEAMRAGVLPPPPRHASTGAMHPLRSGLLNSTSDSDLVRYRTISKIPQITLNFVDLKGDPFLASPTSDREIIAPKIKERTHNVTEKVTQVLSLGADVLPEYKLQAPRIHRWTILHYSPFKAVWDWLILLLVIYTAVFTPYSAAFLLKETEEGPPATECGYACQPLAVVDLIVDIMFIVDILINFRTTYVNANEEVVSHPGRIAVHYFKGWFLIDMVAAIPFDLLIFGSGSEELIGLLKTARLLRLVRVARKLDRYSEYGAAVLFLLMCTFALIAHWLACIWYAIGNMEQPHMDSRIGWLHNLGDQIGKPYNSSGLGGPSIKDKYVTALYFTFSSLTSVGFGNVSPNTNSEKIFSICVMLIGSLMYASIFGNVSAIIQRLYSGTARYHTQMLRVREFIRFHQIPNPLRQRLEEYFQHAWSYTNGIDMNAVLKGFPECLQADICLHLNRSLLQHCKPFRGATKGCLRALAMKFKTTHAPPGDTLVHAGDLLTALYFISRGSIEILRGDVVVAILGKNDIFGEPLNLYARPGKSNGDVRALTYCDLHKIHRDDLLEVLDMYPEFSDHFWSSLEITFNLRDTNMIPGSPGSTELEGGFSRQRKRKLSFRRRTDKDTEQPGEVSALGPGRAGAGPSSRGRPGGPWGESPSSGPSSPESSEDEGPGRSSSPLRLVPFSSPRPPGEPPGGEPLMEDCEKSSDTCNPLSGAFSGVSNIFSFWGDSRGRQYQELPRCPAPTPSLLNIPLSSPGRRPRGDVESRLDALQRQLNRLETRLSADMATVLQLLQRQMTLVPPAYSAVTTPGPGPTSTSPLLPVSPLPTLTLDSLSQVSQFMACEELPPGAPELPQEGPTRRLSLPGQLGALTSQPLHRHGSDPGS
Series [7] is described as follows: Cmax in human whole blood at 80 mg, bid. Format: ADME, tissue-based. The arrangement: dose 80 mg.

By Tmax is commonly meant the time at which the peak concentration occurs. As a reminder, the AUC(0-t) is the area under the concentration-time curve up to a stated or last time point. High values mean more exposure, low ones less exposure. The Cmax is the maximum level reached in the sampled fluid or tissue. The term pIC50 denotes the IC50 on a negative log10 scale, so that one unit is a factor of ten. Higher therefore signals a small IC50. Turning to `Cc1c(-c2ccc(NC(=O)c3c(F)cccc3F)cc2)cccc1-c1nn(C)c(=O)o1`, in series [1], the Tmax was 2 h. In series [2], this compound showed an AUC(0-t) at 192 h of 8.3 µM·h. Also, the results for the Cmax in series [3], in series [5] and in series [7] were 4.5 µM, 1.6 µM and 1.57 µM, respectively. Moreover, the AUC(0-t) at 360 h in series [4] was found to be 36 µM·h. In series [6], this compound had a negative-log IC50 (pIC50) of under 5.00.

The values above are taken from ChEMBL document CHEMBL4831556, “Discovery of a Novel Potent and Selective Calcium Release-Activated Calcium Channel Inhibitor: 2,6-Difluoro-N-(2'-methyl-3'-(4-methyl-5-oxo-4,5-dihydro-1,3,4-oxadiazol-2-yl)-[1,1'-biphenyl]-4-yl)benzamide. Structure-Activity Relationship and Preclinical Characterization” (J Med Chem, 2021).
